Patent US5312816A, “Method of combatting osteoporosis in mammalian subjects, utilizing organic boron compounds” (priority 1993, dated 1994)

Columns and labels:
Cf1 male mice = experiment: Writhing reflex, 0.6% acetic acid; type: in vivo; details: Mus musculus, ip, Table IV
Elastase [1] = experiment: Human osteoporosis fibroblasts elastase activity; type: cell-based; details: Table XI; human osteoporosis fibroblasts, 60 min incubation; read-out: Elastase IC50
Text: (§1) 2. Elastase- N-succinyl-L-alanyl-L-alanine-p-nitroanilide, pH 8.0, p-nitro anilide 410 nm.

Acid phosphatase [2] = experiment: Human osteoporosis fibroblasts acid phosphatase activity; type: cell-based; details: Table X; human osteoporosis fibroblasts; read-out: Acid Phosphatase IC50
Text: 1. Acid phosphatase -beta glycerol-3-phosphate, pH 5.0, released IP 720 nm.

Trypsin [3] = experiment: Mouse macrophage trypsin (BAEE) activity; type: cell-based; details: Table VIII; mouse macrophages, 60 min incubation; read-out: Trypsin BAEE IC50
[4] = tested on: Prostaglandin cyclooxygenase; experiment: Human osteoporosis fibroblasts prostaglandin cyclooxygenase activity; type: cell-based; details: Table XI, 60 min incubation, read-out: Prostaglandin Cyclooxygense IC50
Acid phosphatase [5] = experiment: Mouse macrophage acid phosphatase activity; type: cell-based; details: Table VII; mouse macrophage cultured cells, 60 min incubation; read-out: Acid Phosphatase IC50
[6] = tested on: Prostaglandin cyclooxygenase; experiment: Mouse macrophage prostaglandin cyclooxygenase activity; type: cell-based; details: Table VIII; mouse macrophages, 60 min incubation; read-out: Prostaglandin Cyclooxygenase IC50
Text: 3. Mouse macrophages J774A.1 BALB/c
(§2) Prostaglandin synthetase purified beef seminal vesicle ^3 H arachidonic acid (86.2 Ci/mmol), tlc separation.

Trypsin [7] = experiment: Human osteoporosis fibroblasts trypsin (BAEE) activity; type: cell-based; details: Table XI; human osteoporosis fibroblasts, 60 min incubation; read-out: Trypsin BAEE IC50
Text: 1. Trypsin- N-benzoyl-L-arginine ethyl ester pH 8.0, hydrolytic product 253 nm.

Elastase [8] = experiment: Mouse macrophage elastase activity; type: cell-based; details: Table VIII; mouse macrophages, 60 min incubation; read-out: Elastase IC50
Aryl sulphatase [9] = experiment: Mouse macrophage aryl sulphatase activity; type: cell-based; details: Table VII; mouse macrophage cultured cells, 60 min incubation; read-out: Aryl Sulphatase IC50
5'-lipoxygenase = target: T1, 5'-lipoxygenase (Mus musculus, UniProt P48999); experiment: Mouse hepatic 5'-lipoxygenase activity; type: biochemical; details: Table VI; mouse hepatic, 60 min incubation; read-out: 5'-lipoxygenase IC50
T1 construct: Cf1 male mouse hepatic 10% homogenates; from tissue; host or cells: CF1 male mouse liver, 10% homogenate
T1 sequence (P48999 1-674): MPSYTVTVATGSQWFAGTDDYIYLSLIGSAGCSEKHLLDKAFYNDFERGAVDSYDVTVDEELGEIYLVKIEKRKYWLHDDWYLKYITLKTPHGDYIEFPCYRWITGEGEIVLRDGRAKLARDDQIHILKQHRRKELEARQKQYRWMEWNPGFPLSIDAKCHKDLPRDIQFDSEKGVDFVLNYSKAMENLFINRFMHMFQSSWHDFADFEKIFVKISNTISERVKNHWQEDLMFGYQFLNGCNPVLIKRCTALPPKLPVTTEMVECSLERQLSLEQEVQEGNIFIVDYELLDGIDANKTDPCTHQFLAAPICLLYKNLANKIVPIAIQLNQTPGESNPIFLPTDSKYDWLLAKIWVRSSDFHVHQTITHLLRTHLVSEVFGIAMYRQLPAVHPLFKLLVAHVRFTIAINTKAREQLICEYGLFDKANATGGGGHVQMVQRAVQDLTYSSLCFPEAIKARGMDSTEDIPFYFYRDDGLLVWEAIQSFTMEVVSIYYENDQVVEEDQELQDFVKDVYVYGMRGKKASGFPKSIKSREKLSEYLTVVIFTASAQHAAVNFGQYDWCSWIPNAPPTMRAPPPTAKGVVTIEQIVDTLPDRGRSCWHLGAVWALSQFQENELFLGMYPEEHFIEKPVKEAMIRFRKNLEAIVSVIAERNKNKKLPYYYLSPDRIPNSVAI
Text: 1. Cf1 male mouse hepatic 10% homogenates in 0.25M sucrose+0.001MEDTA,pH 7.2.
5'-lipoxygenase Mylari, B.L., et al, J. Med.

Sprague Dawley Rats = experiment: Anti-inflammatory activity in Sprague Dawley rats; type: in vivo; details: Table IV; 8 mg/kg I.P.
Cathepsin D = target: T2, Cathepsin D (Homo sapiens, UniProt P07339); experiment: Human osteoporosis fibroblasts cathepsin D (azo-casein) activity; type: cell-based; details: Table X; human osteoporosis fibroblasts, DMEM +10% FCS + P/S; read-out: Cathepsin D IC50
T2 construct: azocasein assay pH 5.0
Text: Osteoporosis Human Fibroblast-CRL-1140, Be SA1
Acid Cathepsin D -azocasein-pH 5.0, hydrolytic azo-peptide produce 366 nm.

Aryl sulphatase [10] = experiment: Human osteoporosis fibroblasts aryl sulphatase activity; type: cell-based; details: Table X; human osteoporosis fibroblasts; read-out: Aryl Sulphatase IC50
Text: 3. Aryl sulphatase- p-nitrocatechol sulfate, pH
5. 8 p-nitro-catechol product 510 nm.

Phosphorus = experiment: Serum and urine inorganic phosphorus levels in vivo; details: Cf1 male mice, 8 mg/kg/day I.P. 14 days, N=6
Prostaglandin synthetase = target: T3, Prostaglandin synthetase (Bos taurus, UniProt O62664); experiment: Prostaglandin synthetase (cyclooxygenase), purified beef seminal vesicle; type: biochemical; details: Table IX; commercial enzyme preparation; read-out: Beef Prostaglandin Cyclooxygenase IC50
T3 construct: Prostaglandin synthetase purified beef seminal vesicle; from tissue
T3 sequence (O62664 25-600): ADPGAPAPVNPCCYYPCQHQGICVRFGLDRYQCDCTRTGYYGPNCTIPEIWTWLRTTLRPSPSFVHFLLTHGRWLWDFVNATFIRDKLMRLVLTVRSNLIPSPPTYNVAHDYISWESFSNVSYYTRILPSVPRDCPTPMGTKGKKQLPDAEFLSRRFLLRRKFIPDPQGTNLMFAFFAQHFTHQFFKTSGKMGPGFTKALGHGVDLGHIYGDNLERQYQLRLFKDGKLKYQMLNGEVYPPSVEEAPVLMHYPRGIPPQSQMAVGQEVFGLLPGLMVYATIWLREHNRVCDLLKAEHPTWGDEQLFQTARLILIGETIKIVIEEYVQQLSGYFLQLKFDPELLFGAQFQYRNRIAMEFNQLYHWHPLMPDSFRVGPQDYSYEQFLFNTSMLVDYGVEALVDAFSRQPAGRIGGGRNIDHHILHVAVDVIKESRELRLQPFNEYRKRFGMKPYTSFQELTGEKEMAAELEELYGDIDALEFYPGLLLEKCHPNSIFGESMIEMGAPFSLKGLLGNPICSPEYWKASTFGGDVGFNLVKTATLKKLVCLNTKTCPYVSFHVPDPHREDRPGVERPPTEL
Text: as §2

Hydroxyproline = experiment: Serum and urine hydroxyproline levels in vivo; details: Cf1 male mice, 8 mg/kg/day I.P. 14 days, N=6
[11] = target: T4, Porcine Pancreatic Elastase (Sus scrofa, UniProt P00772); experiment: Porcine pancreatic elastase activity in vitro; type: biochemical; details: Table IX; commercial enzyme preparation
T4 construct: purchased; host or cells: porcine pancreas
Text: as §1

Calcium = experiment: Serum and urine calcium levels in vivo; details: Cf1 male mice, 8 mg/kg/day I.P. 14 days, N=6

T2 sequence (P07339 65-412): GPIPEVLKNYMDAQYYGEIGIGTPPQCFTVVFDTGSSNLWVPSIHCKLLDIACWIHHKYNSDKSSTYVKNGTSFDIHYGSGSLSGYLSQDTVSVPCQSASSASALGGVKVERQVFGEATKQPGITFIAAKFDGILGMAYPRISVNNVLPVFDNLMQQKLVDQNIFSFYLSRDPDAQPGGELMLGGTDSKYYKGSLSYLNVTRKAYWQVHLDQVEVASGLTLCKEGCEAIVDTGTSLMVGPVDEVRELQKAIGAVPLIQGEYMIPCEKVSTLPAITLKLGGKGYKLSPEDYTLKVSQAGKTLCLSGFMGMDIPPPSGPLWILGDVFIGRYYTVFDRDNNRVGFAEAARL
T4 sequence (P00772 27-266): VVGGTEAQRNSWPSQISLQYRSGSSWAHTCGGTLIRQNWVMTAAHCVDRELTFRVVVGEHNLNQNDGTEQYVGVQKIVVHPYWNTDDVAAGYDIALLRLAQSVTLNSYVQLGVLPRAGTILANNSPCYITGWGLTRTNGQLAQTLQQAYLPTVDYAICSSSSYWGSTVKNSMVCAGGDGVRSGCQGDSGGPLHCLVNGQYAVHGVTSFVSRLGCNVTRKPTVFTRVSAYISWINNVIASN

CCNC(=O)[BH2-][NH+](C)C [Compound 9, Dimethylamine-N-ethylcarbamoylborane]
response vs control in vivo at 8 mg/kg (Cf1 male mice; 8 mg/kg I.P.): 26.9% | IC50 (Elastase [1]): 0.98 µM | IC50 (Acid phosphatase [2]): 8.6 µM | IC50 (Trypsin [3]): 2.03 µM | IC50 [4]: 8.05 µM | IC50 (Acid phosphatase [5]): 1.12 µM | IC50 [6]: 5.19 µM | IC50 (Trypsin [7]): 4.36 µM | IC50 (Elastase [8]): 3.29 µM | IC50 (Aryl sulphatase [9]): 9.27 µM | IC50 (5'-lipoxygenase): 43.5 µM | Anti-Inflammatory Activity Sprague Dawley Rats (Sprague Dawley Rats): 41 % Control | IC50 (Cathepsin D): 1.93 µM | IC50 (Aryl sulphatase [10]): 7.63 µM

CCCCCCCCCCCCCCCCCC[N+](C)(C)[BH2-]C(=O)O [Compound 6, N,N-Dimethyloctadecylamine-carboxyborane]
response vs control in vivo at 20 mg/kg (Cf1 male mice): 14.1% | Phosphorus serum (Phosphorus): 86.2 % Control | Phosphorus urine (Phosphorus): 65.4 % Control | IC50 (Prostaglandin synthetase): 1.92 µM | Hydroxyproline serum (Hydroxyproline): 76.4 % Control | Hydroxyproline urine (Hydroxyproline): 60.6 % Control | IC50 [11]: 27.6 µM | Calcium serum (Calcium): 135.4 % Control | Calcium urine (Calcium): 64.4 % Control
